Calls of active or inactive are those of the source. The rule behind the calls is not given here.
What was measured:
MCF7 [1] = experiment: Induction of apoptosis in human MCF7 cells assessed as late apoptotic cells at 0.01 uM after 24 hrs by Annexin-V and 7-AAD staining based flow cytometric analysis (reference value: 7.63%); format: functional
HCT-116 [2] = experiment: Induction of apoptosis in human HCT116 cells assessed as early apoptotic cells at 0.1 uM after 24 hrs by Annexin-V and 7-AAD staining based flow cytometric analysis ((reference value: 8.11%); format: functional
MCF7 [3] = experiment: Induction of cell cycle arrest in human MCF7 cells assessed as accumulation at S phase at 0.01 uM after 24 hrs by 7-AAD staining-based flow cytometric analysis (reference value: 26.07%); format: functional
HCT-116 [4] = experiment: Induction of cell cycle arrest in human HCT116 cells assessed as accumulation at S phase at 0.05 uM after 24 hrs by 7-AAD staining-based flow cytometric analysis (reference value: 37.20%); format: functional
MCF7 [5] = experiment: Induction of cell cycle arrest in human MCF7 cells assessed as accumulation at G0/G1 phase at 0.01 uM after 24 hrs by 7-AAD staining-based flow cytometric analysis (reference value: 62.45%); format: functional
MCF7 [6] = experiment: Induction of apoptosis in human MCF7 cells assessed as late apoptotic cells at 0.005 uM after 24 hrs by Annexin-V and 7-AAD staining based flow cytometric analysis (reference value: 7.63%); format: functional
HCT-116 [7] = experiment: Induction of cell cycle arrest in human HCT116 cells assessed as accumulation at G0/G1 phase at 0.05 uM after 24 hrs by 7-AAD staining-based flow cytometric analysis (reference value: 50.53%); format: functional
Homo sapiens = species: Homo sapiens; conditions: 0.05 to 0.1 uM
Description: Antimigratory activity against human MCF7 cells assessed as reduction in cell migration at 0.05 to 0.1 uM incubated for 30 mins and measured after 24 hrs by crystal violet staining based inverted microscopic analysis

MCF7 [8] = experiment: Induction of apoptosis in human MCF7 cells assessed as early apoptotic cells at 0.01 uM after 24 hrs by Annexin-V and 7-AAD staining based flow cytometric analysis (reference value: 2.04%); format: functional
HCT-116 [9] = experiment: Induction of apoptosis in human HCT116 cells assessed as viable cells at 0.1 uM after 24 hrs by Annexin-V and 7-AAD staining based flow cytometric analysis (reference value: 88.6%); format: functional; conditions: HCT-116, 24 h, read-out: Activity
MCF7 [10] = experiment: Antiproliferative activity against human MCF7 cells overexpressing FAK assessed as reduction in cell viability after 72 hrs by MTS assay; conditions: MCF7, 72 h
HCT-116 [11] = experiment: Induction of cell cycle arrest in human HCT116 cells assessed as increase in accumulation at G2/M phase after 24 hrs by 7-AAD staining-based flow cytometric analysis; format: functional
MCF7 [12] = experiment: Induction of cell cycle arrest in human MCF7 cells assessed as accumulation at S phase at 0.005 uM after 24 hrs by 7-AAD staining-based flow cytometric analysis (reference value: 26.07%); format: functional
HCT-116 [13] = experiment: Induction of cell cycle arrest in human HCT116 cells assessed as accumulation at G2/M phase at 0.1 uM after 24 hrs by 7-AAD staining-based flow cytometric analysis (reference value: 12.26%); format: functional
HCT-116 [14] = experiment: Induction of apoptosis in human HCT116 cells assessed as viable cells at 0.005 uM after 24 hrs by Annexin-V and 7-AAD staining based flow cytometric analysis (reference value: 88.6%); format: functional; conditions: HCT-116, 24 h, read-out: Activity
MCF7 [15] = experiment: Induction of apoptosis in human MCF7 cells assessed as viable cells at 0.005 uM after 24 hrs by Annexin-V and 7-AAD staining based flow cytometric analysis (reference value: 90.2%); format: functional; conditions: MCF7, 24 h, read-out: Activity
HCT-116 [16] = experiment: Induction of cell cycle arrest in human HCT116 cells assessed as accumulation at G2/M phase at 0.005 uM after 24 hrs by 7-AAD staining-based flow cytometric analysis (reference value: 12.26%); format: functional
HCT-116 [17] = experiment: Induction of cell cycle arrest in human HCT116 cells assessed as accumulation at S phase at 0.005 uM after 24 hrs by 7-AAD staining-based flow cytometric analysis (reference value: 37.20%); format: functional
MCF-10A = experiment: Cytotoxicity against human MCF10A cells assessed as reduction in cell viability after 72 hrs by MTS assay
HCT-116 [18] = experiment: Induction of apoptosis in human HCT116 cells assessed as viable cells at 0.05 uM after 24 hrs by Annexin-V and 7-AAD staining based flow cytometric analysis (reference value: 88.6%); format: functional; conditions: HCT-116, 24 h, read-out: Activity
HCT-116 [19] = experiment: Induction of apoptosis in human HCT116 cells assessed as late apoptotic cells at 0.05 uM after 24 hrs by Annexin-V and 7-AAD staining based flow cytometric analysis (reference value: 2.63%); format: functional
HCT-116 [20] = experiment: Induction of apoptosis in human HCT116 cells assessed as early apoptotic cells at 0.005 uM after 24 hrs by Annexin-V and 7-AAD staining based flow cytometric analysis (reference value: 8.11%); format: functional
MCF7 [21] = experiment: Induction of apoptosis in human MCF7 cells assessed as viable cells at 0.01 uM after 24 hrs by Annexin-V and 7-AAD staining based flow cytometric analysis (reference value: 90.2%); format: functional; conditions: MCF7, 24 h, read-out: Activity
MCF7 [22] = experiment: Induction of apoptosis in human MCF7 cells assessed as necrotic cells at 0.05 uM after 24 hrs by Annexin-V and 7-AAD staining based flow cytometric analysis (reference value: 0.16%); format: functional
MCF7 [23] = experiment: Induction of cell cycle arrest in human MCF7 cells assessed as accumulation at G0/G1 phase at 0.05 uM after 24 hrs by 7-AAD staining-based flow cytometric analysis (reference value: 62.45%); format: functional
HCT-116 [24] = experiment: Induction of apoptosis in human HCT116 cells assessed as early apoptotic cells at 0.05 uM after 24 hrs by Annexin-V and 7-AAD staining based flow cytometric analysis (reference value: 8.11%); format: functional
HCT-116 [25] = experiment: Induction of apoptosis in human HCT116 cells assessed as late apoptotic cells at 0.1 uM after 24 hrs by Annexin-V and 7-AAD staining based flow cytometric analysis (reference value: 2.63%); format: functional
HCT-116 [26] = experiment: Induction of cell cycle arrest in human HCT116 cells assessed as accumulation at S phase at 0.1 uM after 24 hrs by 7-AAD staining-based flow cytometric analysis (reference value: 37.20%); format: functional
HCT-116 [27] = experiment: Induction of cell cycle arrest in human HCT116 cells assessed as accumulation at G0/G1 phase at 0.1 uM after 24 hrs by 7-AAD staining-based flow cytometric analysis (reference value: 50.53%); format: functional
MCF7 [28] = experiment: Induction of cell cycle arrest in human MCF7 cells assessed as accumulation at G0/G1 phase at 0.005 uM after 24 hrs by 7-AAD staining-based flow cytometric analysis (reference value: 62.45%); format: functional
MCF7 [29] = experiment: Induction of cell cycle arrest in human MCF7 cells assessed as accumulation at G2/M phase at 0.01 uM after 24 hrs by 7-AAD staining-based flow cytometric analysis (reference value: 11.48%); format: functional
MCF7 [30] = experiment: Induction of cell cycle arrest in human MCF7 cells assessed as accumulation at G2/M phase at 0.005 uM after 24 hrs by 7-AAD staining-based flow cytometric analysis (reference value: 11.48%); format: functional
HCT-116 [31] = experiment: Induction of apoptosis in human HCT116 cells after 24 hrs by Annexin-V and 7-AAD staining based flow cytometric analysis; format: functional, cell-based

Q: Which Activity (MCF7 [1]) does the source give for CNC(=O)c1ccccc1Nc1nc(Nc2ccc(C(=O)N3CCN(C(=S)SCCN(C)C)CC3)cc2)ncc1C(F)(F)F here?
A: 21.4%

Q: What about the Activity (HCT-116 [2]) of the same compound?
A: 21.5%

Q: What about the Activity (MCF7 [3]) of the same compound?
A: 8.75%

Q: And the Activity (HCT-116 [4])?
A: 9.05%

Q: And the Activity (MCF7 [5])?
A: 9.52%

Q: And the Activity (MCF7 [6])?
A: 16.5%

Q: What about the Activity (HCT-116 [7]) of the same compound?
A: 3.4%

Q: What about the inhibition (Homo sapiens) of the same compound?
A: Active

Q: And the Activity (MCF7 [8])?
A: 6.95%

Q: What about the viability at 0.1 µM (HCT-116 [9]) of the same compound?
A: 78.4%

Q: And the IC50 (MCF7 [10])?
A: 20 nM

Q: What about the Activity (HCT-116 [11]) of the same compound?
A: Dose-dependent effect

Q: And the Activity (MCF7 [12])?
A: 21.4%

Q: And the Activity (HCT-116 [13])?
A: 90.46%

Q: What about the viability at 0.005 µM (HCT-116 [14]) of the same compound?
A: 82.4%

Q: What about the viability at 0.005 µM (MCF7 [15]) of the same compound?
A: 74.2%

Q: What about the Activity (HCT-116 [16]) of the same compound?
A: 18.38%

Q: And the Activity (HCT-116 [17])?
A: 41.86%

Q: And the IC50 (MCF-10A)?
A: 280 nM

Q: And the viability at 0.05 µM (HCT-116 [18])?
A: 79.3%

Q: What about the Activity (HCT-116 [19]) of the same compound?
A: 1.68%

Q: And the Activity (HCT-116 [20])?
A: 15.9%

Q: What about the viability at 0.01 µM (MCF7 [21]) of the same compound?
A: 71.2%

Q: And the Activity (MCF7 [22])?
A: 0.56%

Q: And the Activity (MCF7 [23])?
A: 6.72%

Q: What about the Activity (HCT-116 [24]) of the same compound?
A: 18.7%

Q: And the Activity (HCT-116 [25])?
A: 0.16%

Q: What about the Activity (HCT-116 [26]) of the same compound?
A: 4.4%

Q: What about the Activity (HCT-116 [27]) of the same compound?
A: 5.14%

Q: What about the Activity (MCF7 [28]) of the same compound?
A: 41.93%

Q: What about the Activity (MCF7 [29]) of the same compound?
A: 81.73%

Q: What about the Activity (MCF7 [30]) of the same compound?
A: 36.67%

Q: And the Activity (HCT-116 [31])?
A: Dose-dependent effect
